The source of these data is ChEMBL document CHEMBL1123342 (J Med Chem, 1986).

For the assay, the target named is Pancreatic elastase (Sus scrofa, UniProt P08419+P00772). The assay is described as follows: Compound is evaluated for the inhibition of porcine pancreatic (PP) elastase. The format is protein.
Broadly, the Ki is the equilibrium dissociation constant of an inhibitor or competing ligand from its target. Consider `COC(=O)CCC(=O)N[C@@H](C)C(=O)N[C@@H](C)C(=O)N1CCC[C@H]1C(=O)CN(C(=O)Oc1ccccc1)C(C)C`, for which the Ki stood at 31.5 µM.

The compound `COC(=O)CCC(=O)N[C@@H](C)C(=O)N[C@@H](C)C(=O)N1CCC[C@H]1C(=O)CN(C(=O)Sc1nnnn1C)C(C)C` came in with an inhibitory constant (Ki) of 19.5 µM.

For the compound `COC(=O)CCC(=O)N[C@@H](C)C(=O)N[C@@H](C)C(=O)N1CCC[C@H]1C(=O)CN(C(=O)Oc1ccc([N+](=O)[O-])cc1)C(C)C`, the Ki is 42.5 µM.

Take `COC(=O)CCC(=O)N[C@@H](C)C(=O)N[C@@H](C)C(=O)N1CCC[C@H]1C(=O)CN(C(=O)OCC(F)(F)C(F)(F)C(F)(F)F)C(C)C`: the Ki stood at 82.1 µM.

With `COC(=O)CCC(=O)N[C@@H](C)C(=O)N[C@@H](C)C(=O)N1CCC[C@H]1C(=O)CN(C(=O)Oc1c(F)c(F)c(F)c(F)c1F)C(C)C`, the Ki came out at 35 µM.

The compound `COC(=O)CCC(=O)N[C@@H](C)C(=O)N[C@@H](C)C(=O)N1CCC[C@H]1C(=O)CN(C(=O)Sc1nnnn1-c1ccccc1)C(C)C` had a Ki of 2.4 µM.
